Measurements taken from ChEMBL document CHEMBL1255236, “Hepatotoxicity observed in clinical trials of aplaviroc (GW873140)” (Antimicrob Agents Chemother, 2008).

Experiments:
[1] = AUC (0 to 24 hrs) in Human immunodeficiency virus 1 infected human at 600 mg/kg, BID; format: ADME, organism-based; parameters: time < 24 hr, dose 600 mg/kg; conditions: plasma
Monkey = assay: Hepatotoxicity in monkey assessed as increase in liver ALT level at 2000 mg/kg/day; format: toxicity, organism-based; conditions: cercopithecidae, in vivo
Rattus norvegicus [2] = assay: Hepatotoxicity in rat assessed as increase in liver bilirubin level at >500 mg/kg/day; format: toxicity, organism-based; conditions: in vivo
[3] = AUC (0 to 24 hrs) in Human immunodeficiency virus 1 infected human at 800 mg/kg, BID; format: ADME, organism-based; parameters: time < 24 hr, dose 800 mg/kg; conditions: plasma
Rattus norvegicus [4] = assay: Hepatotoxicity in rat assessed as increase in liver ALT level at >500 mg/kg/day; format: toxicity, organism-based; conditions: in vivo
[5] = AUC (0 to 24 hrs) in Human immunodeficiency virus 1 infected human at 800 mg/kg, QD; format: ADME, organism-based; parameters: time < 24 hr, dose 800 mg/kg; conditions: plasma
[6] = AUC (0 to 24 hrs) in Human immunodeficiency virus 1 infected human at 200 mg/kg, BID; format: ADME, organism-based; parameters: time < 24 hr, dose 200 mg/kg; conditions: plasma
[7] = system: Human immunodeficiency virus 1; assay: Antiviral activity against Human immunodeficiency virus 1 infected in human assessed as log reduction in HIV-1 RNA level at 600 mg/kg, BID after 10 days; format: functional
[8] = Half life in healthy human at 200 to 800 mg/kg, BID; format: ADME, organism-based; parameters: dose 200-800 mg/kg; conditions: in vivo
[9] = AUC (0 to 24 hrs) in Human immunodeficiency virus 1 infected human at 400 mg/kg, BID; format: ADME, organism-based; parameters: time < 24 hr, dose 400 mg/kg; conditions: plasma

CCCCN1C(=O)[C@@H]([C@H](O)C2CCCCC2)NC(=O)C12CCN(Cc1ccc(Oc3ccc(C(=O)O)cc3)cc1)CC2 [APLAVIROC]
AUC at 24 h [1]: 2100 ng·h/mL | Activity (Monkey): Non-toxic | Activity (Rattus norvegicus [2]): Toxic | AUC at 24 h [3]: 3410 ng·h/mL | Activity (Rattus norvegicus [4]): Toxic | AUC at 24 h [5]: 5840 ng·h/mL | AUC at 24 h [6]: 2010 ng·h/mL | FC [7]: 1.66 | half-life [8]: 3 h | AUC at 24 h [9]: 6060 ng·h/mL
